For 29 compounds, IC50 results are on record in US8975398B2, “NAMPT inhibitors” (AbbVie Inc., priority 2012, dated 2015).

One assay deals with NAMPT (Homo sapiens, UniProt P43490). The assay is described as follows: Time-Resolved Fluorescence Resonance Energy Transfer (TR-FRET) Binding Assay of NAMPT with PRPP. As to conditions: 2 nM NAMPT, 2 nM probe, 200 uM PRPP and 2.5 mM ATP, equilibrated 16 hours. Put shortly:
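Final mix: 2 nM NAMPT, 2 nM probe, 1 nM Tb-anti-His antibody, 200 uM PRPP, 2.5 mM ATP, 2% DMSO in 1× assay buffer. Equilibrated 16 hours before TR-FRET read, allowing possible enzymatic modification of compounds.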
On the technique in general: In TR-FRET formats the signal depends on donor and acceptor labels being close together.

Assay [1] concerns the target NAMPT (human, recombinant, C-terminally His-tagged) (Homo sapiens, UniProt P43490). In words: Time-Resolved Fluorescence Resonance Energy Transfer (TR-FRET) Binding Assay of NAMPT. The note with it: 6.8 nM NAMPT, 200 nM probe, equilibrated 3 hours, absence of substrates. The method in brief:
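Recombinant C-terminally His-tagged human NAMPT (6.8 nM) incubated 3 h at room temperature with 200 nM Oregon Green 488–labelled nicotinamide-competitive probe and 1 nM Tb-anti-His antibody in HEPES pH 7.5, 2% DMSO. TR-FRET ratio Em520/Em495 normalized to controls; IC50 from four-parameter logistic fit.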

NAMPT, sequence (P43490 whole entry): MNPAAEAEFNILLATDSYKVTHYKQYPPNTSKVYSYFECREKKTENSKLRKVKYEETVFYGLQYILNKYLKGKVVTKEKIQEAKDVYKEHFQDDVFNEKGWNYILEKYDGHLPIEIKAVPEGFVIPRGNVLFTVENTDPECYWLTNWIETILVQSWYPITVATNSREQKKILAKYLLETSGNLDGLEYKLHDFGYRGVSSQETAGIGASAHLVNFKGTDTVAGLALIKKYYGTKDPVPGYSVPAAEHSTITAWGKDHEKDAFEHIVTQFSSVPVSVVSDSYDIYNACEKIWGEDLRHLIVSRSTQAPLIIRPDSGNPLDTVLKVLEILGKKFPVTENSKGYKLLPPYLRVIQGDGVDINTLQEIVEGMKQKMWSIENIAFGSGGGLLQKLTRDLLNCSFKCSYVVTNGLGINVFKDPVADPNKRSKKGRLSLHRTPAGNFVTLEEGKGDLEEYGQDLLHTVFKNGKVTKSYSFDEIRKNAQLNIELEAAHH
NAMPT (human, recombinant, C-terminally His-tagged), sequence (P43490 whole entry): as above

For `O=C(Nc1ccc(OC2CCN(C(=O)Cc3cccc(C(F)(F)F)c3)CC2)cc1)C1CN(c2cccnn2)C1` [Example 240, 1-(pyridazin-3-yl)-N-{4-[(1-{[3-(trifluoromethyl)phenyl]acetyl}piperidin-4-yl)oxy]phenyl}azetidine-3-carboxamide], the IC50 (commonly the midpoint of a concentration-inhibition curve) turned out to be 0.925 nM on NAMPT and 192 nM in assay [1].

As for `CC(C)(C)C(=O)N1CCC(Oc2ccc(NC(=O)C3CN(c4cccnn4)C3)cc2)CC1` [Example 241, N-(4-{[1-(2,2-dimethylpropanoyl)piperidin-4-yl]oxy}phenyl)-1-(pyridazin-3-yl)azetidine-3-carboxamide], the figures for the IC50 (at NAMPT; in assay [1]) were 0.811 nM and 131 nM, respectively.

On to `O=C(Nc1ccc(OC2CCN(C(=O)c3ccccn3)CC2)cc1)C1CN(c2cccnn2)C1` [Example 242, 1-(pyridazin-3-yl)-N-(4-{[1-(pyridin-2-ylcarbonyl)piperidin-4-yl]oxy}phenyl)azetidine-3-carboxamide], for which the IC50 was found to be 1.17 nM on NAMPT and 278 nM in assay [1].

Turning to `O=C(Nc1ccc(OC2CCN(C(=O)c3cc(F)cc(F)c3)CC2)cc1)C1CN(c2cccnn2)C1` [Example 243, N-(4-{[1-(3,5-difluorobenzoyl)piperidin-4-yl]oxy}phenyl)-1-(pyridazin-3-yl)azetidine-3-carboxamide], the IC50 worked out at 0.97 nM at NAMPT and 269 nM in assay [1].

With `CC(=O)N1CCC(Oc2ccc(NC(=O)C3CN(c4cccnn4)C3)cc2)CC1` [Example 244, -{4-[(1-acetylpiperidin-4-yl)oxy]phenyl}-1-(pyridazin-3-yl)azetidine-3-carboxamide], the values for the IC50 (on NAMPT; in assay [1]) were 0.916 nM and 449 nM, respectively.

For `O=C(Nc1ccc(OC2CCN(C(=O)c3ccc(Cl)cc3)CC2)cc1)C1CN(c2cccnn2)C1` [Example 245, N-(4-{[1-(4-chlorobenzoyl)piperidin-4-yl]oxy}phenyl)-1-(pyridazin-3-yl)azetidine-3-carboxamide], the values for the IC50 (on NAMPT; in assay [1]) were 0.707 nM and 101 nM, respectively.

For the compound `COCC(=O)N1CCC(Oc2ccc(NC(=O)C3CN(c4cccnn4)C3)cc2)CC1` [Example 246, N-(4-{[1-(methoxyacetyl)piperidin-4-yl]oxy}phenyl)-1-(pyridazin-3-yl)azetidine-3-carboxamide], the IC50 on NAMPT worked out at 0.676 nM; in assay [1], 178 nM.

`O=C(Nc1ccc(OC2CCN(C(=O)Cc3ccccc3F)CC2)cc1)C1CN(c2cccnn2)C1` [Example 247, N-[4-({1-[(2-fluorophenyl)acetyl]piperidin-4-yl}oxy)phenyl]-1-(pyridazin-3-yl)azetidine-3-carboxamide]: the figures for the IC50 (at NAMPT; in assay [1]) were 1.02 nM and 86 nM, respectively.

Regarding `CCC(C)(C)C(=O)N1CCC(Oc2ccc(NC(=O)C3CN(c4cccnn4)C3)cc2)CC1` [Example 248, N-(4-{[1-(2,2-dimethylbutanoyl)piperidin-4-yl]oxy}phenyl)-1-(pyridazin-3-yl)azetidine-3-carboxamide], the IC50 at NAMPT turned out to be 0.817 nM; in assay [1] it was 82.6 nM.

For the compound `O=C(Nc1ccc(OC2CCN(C(=O)c3cccs3)CC2)cc1)C1CN(c2cccnn2)C1` [Example 249, 1-(pyridazin-3-yl)-N-(4-{[1-(thiophen-2-ylcarbonyl)piperidin-4-yl]oxy}phenyl)azetidine-3-carboxamide], the IC50 at NAMPT turned out to be 0.6 nM; in assay [1], 59.9 nM.

`O=C(Nc1ccc(OC2CCN(C(=O)c3cccc(Cl)c3)CC2)cc1)C1CN(c2cccnn2)C1` [Example 250, N-(4-{[1-(3-chlorobenzoyl)piperidin-4-yl]oxy}phenyl)-1-(pyridazin-3-yl)azetidine-3-carboxamide]: the IC50 was determined as 0.641 nM on NAMPT and 107 nM in assay [1].

In the case of `O=C(Nc1ccc(OC2CCN(C(=O)C3CC3)CC2)cc1)C1CN(c2cccnn2)C1` [Example 251, N-(4-{[1-(cyclopropylcarbonyl)piperidin-4-yl]oxy}phenyl)-1-(pyridazin-3-yl)azetidine-3-carboxamide], the IC50 on NAMPT stood at 0.88 nM; in assay [1], 230 nM.

In the case of `O=C(Nc1ccc(OC2CCN(C(=O)CC(F)(F)F)CC2)cc1)C1CN(c2cccnn2)C1` [Example 252, 1-(pyridazin-3-yl)-N-(4-{[1-(3,3,3-trifluoropropanoyl)piperidin-4-yl]oxy}phenyl)azetidine-3-carboxamide], the values for the IC50 (at NAMPT; in assay [1]) were 1.1 nM and 238 nM, respectively.

On to `CC(C)C(=O)N1CCC(Oc2ccc(NC(=O)C3CN(c4cccnn4)C3)cc2)CC1` [Example 253, N-(4-{[1-(2-methylpropanoyl)piperidin-4-yl]oxy}phenyl)-1-(pyridazin-3-yl)azetidine-3-carboxamide], for which the results for the IC50 (at NAMPT; in assay [1]) were 0.639 nM and 134 nM, respectively.

In the case of `CC(C)(C)CC(=O)N1CC(Oc2ccc(NC(=O)C3CN(c4ccnnc4)C3)cc2)C1` [Example 254, N-(4-{[1-(3,3-dimethylbutanoyl)azetidin-3-yl]oxy}phenyl)-1-(pyridazin-4-yl)azetidine-3-carboxamide], the results for the IC50 (on NAMPT; in assay [1]) were 11.2 nM and 33.9 nM, respectively.

With `O=C(Nc1ccc(OC2CN(C(=O)C3CCCCC3)C2)cc1)C1CN(c2ccnnc2)C1` [Example 255, N-(4-{[1-(cyclohexylcarbonyl)azetidin-3-yl]oxy}phenyl)-1-(pyridazin-4-yl)azetidine-3-carboxamide], the IC50 at NAMPT is 37.8 nM; in assay [1] it was 47.3 nM.

Turning to `O=C(Nc1ccc(OC2CN(C(=O)CC3CCOCC3)C2)cc1)C1CN(c2ccnnc2)C1` [Example 256, 1-(pyridazin-4-yl)-N-(4-{[1-(tetrahydro-2H-pyran-4-ylacetyl)azetidin-3-yl]oxy}phenyl)azetidine-3-carboxamide], the IC50 is 38.4 nM on NAMPT and 91.1 nM in assay [1].

Turning to `CC1CC1C(=O)N1CC(Oc2ccc(NC(=O)C3CN(c4ccnnc4)C3)cc2)C1` (stereo not shown) [Example 257, N-[4-({1-[(2-methylcyclopropyl)carbonyl]azetidin-3-yl}oxy)phenyl]-1-(pyridazin-4-yl)azetidine-3-carboxamide], the IC50 is 41.9 nM on NAMPT and 64.7 nM in assay [1].

Consider `O=C(Nc1ccc(OC2CN(C(=O)CC(F)(F)F)C2)cc1)C1CN(c2ccnnc2)C1` [Example 258, 1-(pyridazin-4-yl)-N-(4-{[1-(3,3,3-trifluoropropanoyl)azetidin-3-yl]oxy}phenyl)azetidine-3-carboxamide], for which the IC50 at NAMPT is 34.8 nM; in assay [1], 108 nM.

With `O=C(Nc1ccc(OC2CN(C(=O)C3CCCC3)C2)cc1)C1CN(c2ccnnc2)C1` [Example 259, N-(4-{[1-(cyclopentylcarbonyl)azetidin-3-yl]oxy}phenyl)-1-(pyridazin-4-yl)azetidine-3-carboxamide], the IC50 at NAMPT amounted to 17.7 nM; in assay [1] it was 32.5 nM.

Regarding `CC(C)(C)CC(=O)N1CCC(Oc2ccc(NC(=O)C3CN(c4ccnnc4)C3)cc2)CC1` [Example 260, N-(4-{[1-(3,3-dimethylbutanoyl)piperidin-4-yl]oxy}phenyl)-1-(pyridazin-4-yl)azetidine-3-carboxamide], the IC50 was found to be 19 nM at NAMPT and 75.4 nM in assay [1].

For the compound `O=C(Nc1ccc(OC2CN(C(=O)C3CCC3)C2)cc1)C1CN(c2ccnnc2)C1` [Example 261, N-(4-{[1-(cyclobutylcarbonyl)azetidin-3-yl]oxy}phenyl)-1-(pyridazin-4-yl)azetidine-3-carboxamide], the IC50 is 23.7 nM on NAMPT and 62.9 nM in assay [1].

Consider `O=C(Nc1ccc(OC2CN(C(=O)C3CCCO3)C2)cc1)C1CN(c2ccnnc2)C1` (stereo not shown) [Example 262, 1-(pyridazin-4-yl)-N-(4-{[1-(tetrahydrofuran-2-ylcarbonyl)azetidin-3-yl]oxy}phenyl)azetidine-3-carboxamide], for which the values for the IC50 (at NAMPT; in assay [1]) were 34.3 nM and 130 nM, respectively.

As to `CC(C)CCC(=O)N1CC(Oc2ccc(NC(=O)C3CN(c4ccnnc4)C3)cc2)C1` [Example 263, N-(4-{[1-(4-methylpentanoyl)azetidin-3-yl]oxy}phenyl)-1-(pyridazin-4-yl)azetidine-3-carboxamide], the IC50 at NAMPT was determined as 20.2 nM; in assay [1], 31.3 nM.

As for `CC(C)C(=O)N1CC(Oc2ccc(NC(=O)C3CN(c4ccnnc4)C3)cc2)C1` [Example 264, N-(4-{[1-(2-methylpropanoyl)azetidin-3-yl]oxy}phenyl)-1-(pyridazin-4-yl)azetidine-3-carboxamide], the IC50 at NAMPT worked out at 13.4 nM; in assay [1], 52.8 nM.

For the compound `CC[C@H](C)C(=O)N1CC(Oc2ccc(NC(=O)C3CN(c4ccnnc4)C3)cc2)C1` [Example 265, N-[4-({1-[(2S)-2-methylbutanoyl]azetidin-3-yl}oxy)phenyl]-1-(pyridazin-4-yl)azetidine-3-carboxamide], the IC50 was 21.8 nM at NAMPT and 29.5 nM in assay [1].

In the case of `CC(C)CC(=O)N1CCC(Oc2ccc(NC(=O)C3CN(c4ccnnc4)C3)cc2)CC1` [Example 266, N-(4-{[1-(3-methylbutanoyl)piperidin-4-yl]oxy}phenyl)-1-(pyridazin-4-yl)azetidine-3-carboxamide], the results for the IC50 (at NAMPT; in assay [1]) were 53.2 nM and 120 nM, respectively.

Turning to `COCC(=O)N1CCC(Oc2ccc(NC(=O)C3CN(c4ccnnc4)C3)cc2)CC1` [Example 267, N-(4-{[1-(methoxyacetyl)piperidin-4-yl]oxy}phenyl)-1-(pyridazin-4-yl)azetidine-3-carboxamide], the results for the IC50 (at NAMPT; in assay [1]) were 56.5 nM and 274 nM, respectively.

With `O=C(Nc1ccc(OC2CCN(C(=O)CC(F)(F)F)CC2)cc1)C1CN(c2ccnnc2)C1` [Example 268, 1-(pyridazin-4-yl)-N-(4-{[1-(3,3,3-trifluoropropanoyl)piperidin-4-yl]oxy}phenyl)azetidine-3-carboxamide], the IC50 is 42.1 nM at NAMPT and 119 nM in assay [1].
